Test results reported in PubChem BioAssay (NCI).
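Interpolation was linear, between the two tested concentrations surrounding the appropriate level; five concentrations were tested over 48 hours in 96-well plates. At the GI50, growth is halved. TGI: concentration producing complete growth inhibition.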

How the values were obtained:
Assay in all cases: inhibition of tumour cell growth, NCI panel, 48 h
[1] = test system: NCI-H522 lung
[2] = test system: TK-10 renal
[3] = test system: LOX IMVI melanoma
[4] = test system: HT29 colon
[5] = test system: SW-620 colon
[6] = test system: K-562 leukemia
[7] = test system: U251 CNS
[8] = test system: HCT-116 colon

Compound | GI50 [1] [µM] | TGI [1] [µM] | GI50 [2] [µM] | TGI [2] [µM] | GI50 [3] [µM] | TGI [3] [µM] | GI50 [4] [µM] | TGI [4] [µM] | GI50 [5] [µM] | TGI [5] [µM] | GI50 [6] [µM] | TGI [6] [µM] | GI50 [7] [µM] | TGI [7] [µM] | GI50 [8] [µM] | TGI [8] [µM]
CCn1c(=O)c(-c2ccn[nH]2)cc2c(C)nc(N)nc21 | 1.5 | > 100 | 0.871 | 4.62 | 1.73 | 14.4 | 1.53 | > 100 | 2.85 | > 100 | 14.7 | > 100 | 3.75 | > 100 | 2.36 | > 100
CCCCCCCCCCCCN1C(C)=CS/C1=C\C=C\c1scc(C)[n+]1CCCCCCCCCCCC | 1.7 | 5.11 | 0.934 | 3.9 | 1.79 | 5.96 |  |  | 1.71 | 7.19 |  |  |  |  |  | 
Cc1ccc(C)c(NC(=O)C(=O)C(c2cnc3ccc([N+](=O)[O-])cc3n2)[N+](=O)[O-])c1 (stereo unspecified) |  | > 100 |  | > 100 |  |  |  | > 100 |  | > 100 |  | > 100 |  | > 100 |  | > 100
Oc1ccc(C(c2ccccc2)(c2ccccc2)c2ccccc2)cc1 | 13.7 | 27.2 | 36.7 | 87.4 | 24.4 | > 100 |  |  | 22.4 | 66.1 | 24.9 | 61.2 | 28.9 | > 100 | 12.9 | 26.1
CC(C)C[C@H](NC(=O)[C@H](Cc1ccccc1)n1ccc(N2CCCCC2)cc1=O)B(O)O | 0.305 | 2.25 | 0.375 | 15.6 |  |  | 0.449 | > 100 | 0.376 | > 100 | 1.08 | > 100 | 1.18 | > 100 | 0.343 | 2.55
O=C(Nc1ccc(-c2nc3cc4ccccc4cc3[nH]2)cc1)c1cccc(Br)c1 | 12.1 | 31.8 | 4 | 11.3 | 6.85 | 20.1 | 2.77 | 11.9 | 3.09 | 12.8 |  |  | 5.23 | 19 | 3.89 | > 100
Nc1c(C(=O)Nc2ccccc2)sc2nc3c(cc12)CCCCCC3 | 0.271 | 1.29 | 0.883 | 5.2 | 0.772 | > 49.4 | 0.303 | 1.43 | 0.36 | 50.9 | 0.307 | > 41.3 | 0.395 | 7.78 | 0.328 | 4.85
O=[N+]([O-])c1cnc(Sc2ccncn2)c([N+](=O)[O-])c1 | 1.82 | 3.45 | 1.74 | 3.21 | 3.1 | 10.6 | 9.75 | 31.8 | 2.19 | 4.45 | 2.85 | 29.9 | 29.4 | > 100 | 1.84 | 3.59
Cc1ccc(NC(c2ccccc2)c2ccc3cccnc3c2O)cc1 (stereo unspecified) |  | 8.53 |  | 14.3 |  | 16.4 |  | 13.6 |  | > 52.2 |  | 30 |  | 10.9 |  | 13.8
O=C1/C(=C/c2cccc([N+](=O)[O-])c2)COc2ccc(O)c(O)c21 | 0.281 | 1.36 | 1.7 | 3.21 | 0.499 | 1.86 | 2.89 | 19.1 | 1.14 | 3.08 | 0.506 | 7.22 | 1.17 | 2.64 | 1.14 | 2.7
COc1cc2oc(=O)cc(C)c2cc1[N+](=O)[O-] |  | 26.3 |  | 83.6 |  | 28.6 |  | > 57.8 |  | > 64.1 |  | > 100 |  | > 100 |  | 32.3
C[Si](C)(C)C#CCO[Si](C)(C)C |  | 29.9 |  | > 100 |  | 19.9 |  | > 100 |  | > 100 |  | > 100 |  | > 100 |  | > 100
CS(=O)(=O)c1ccc(Oc2cc(F)cc(C#N)c2)c2c1[C@H](O)[C@H](F)[C@@H]2F | > 100 | > 100 | > 100 | > 100 | > 100 | > 100 | > 100 | > 100 | > 100 | > 100 | > 100 | > 100 | > 100 | > 100 | > 100 | > 100
Cn1ccnc1C(=O)/C=C/c1ccc(CC(=O)Nc2ccc(Cl)cc2)cc1 | 4.85 | > 25 | 12.3 | > 25 | 1.07 | > 25 | 0.889 | > 25 | 1.25 | > 25 |  |  | 1.1 | > 25 | 1.31 | > 25
CNc1ccccc1C(=O)N/N=C/C=C/c1ccccc1 | 0.565 | 11.3 | 3.33 | > 100 | 1.34 | > 100 | 0.373 | 12.9 | 0.454 | > 100 | 0.44 | > 100 | 1.19 | 34.8 | 0.499 | > 100
C=C1C(=O)O[C@H]2[C@H]1CC/C(COC(=O)C(=O)c1c[nH]c3ccccc13)=C\CC[C@@]1(C)O[C@@H]21 | 0.878 | 2.4 | 1.38 | 2.81 | 1.48 | 3.04 | 1.21 | 2.68 | 3.09 | 16.6 | 2.28 | 9.5 | 1.86 | 3.64 | 1.68 | 3.24
Oc1c(CN2CCC(N3CCOCC3)CC2)cc(Cc2cc(CN3CCC(N4CCOCC4)CC3)c(O)c3ncccc23)c2cccnc12 | 2.53 | 9.95 | 1.12 | 16.7 | 0.466 | 4.54 | 0.709 | 22.3 | 0.689 | > 100 |  |  | 0.385 | 17.6 | 0.383 | 48.7
